Results reported in PMC7402526, “An in vitro quantitative systems pharmacology approach for deconvolving mechanisms of drug-induced, multilineage cytopenias” (PLoS Computational Biology, 2020).
Where two headings read alike, the source gives them in different places.

Experiments:
Format in all cases: cell-based, human
[1] = tested on: granulocytes (Gran-lin); assay: MLTA, Gran: concentration-response and QSP model fit
Protocol: (§1) A custom optimized cytokine cocktail was developed using commercially available cytokines (Peprotech, New Jersey) to facilitate simultaneous multi-lineage differentiation and self-renewal of freeze-thawed primary human bone marrow-derived CD34+ cells in SFEM II media (cells and media from StemCell Technologies, Vancouver). Cultures were carried out in ultra-low attachment 96-well plates (Corning, New York) with test article added on day 0 and cultured at 37°C, 85% relative humidity, and 5% CO2 for six days before interrogating drug impact via 17-parameter flow cytometry.
(§2) The flow cytometry panel used to define hematopoietic subsets was composed of CD34-PECy7, CD90-PECY5, CD38-AF488, CD371-PE, CD45Ra-BV421, CD14-BV605, CD42b-AF647, CD10-PEDazzle594, CD235a-PerCPCy5.5 (BioLegend, California), CD15-BUV395, CD41a-APCH7, CD71-BV786 (BD Biosciences, California), and DAPI for dead cell exclusion (ThermoFisher, California). In short, Day 6 cells were harvested, FcR-blocked (FcR binding inhibitor, ThermoFisher), surface-stained, then analyzed in a buffer containing TruCount Control Beads using a BD LSR Fortessa SORP fitted with a high-throughput sampler (BD Biosciences, California). Data was analyzed in Diva 6.0.2 and exported to CSV where after all cell data was transformed to cell per mL then normalized on a per-donor basis to untreated control wells to determine drug impact.
(§3) Donor material was collected and cultured as described above. The number of replicate donor samples per drug ranged from 2–7 and varied per drug (S1 Table). Drug treatment was added at time 0 and cells were maintained in culture for 6 days. Concentrations tested for each drug compound are contained in S1 Table. Concentrations were selected to span a range that is clinically useful. Following treatment, cell populations were measured using flow cytometry. We extracted cell counts from flow cytometry data, normalized to bead counts, and corrected for well volume.
(§4) Each well was normalized to the average of six vehicle control wells. For drugs that were tested across multiple runs of the assay, vehicle-normalized donor data were pooled, and we used the average of these pooled data for further modeling. Normalized data used as model inputs are included in S1 Table.
(§5) We implemented drug effects using an Emax model for the drug’s effect on each cell type. The 13 maximum effect parameters (EmaxT,C) are unitless and can vary between 0 and 2 and where a subscript, C, represents one of the previously described 13 cell types. We adapted a traditional Emax model using the equations below. We interpreted EmaxT values less than or equal to one as anti-proliferative, and EmaxT values greater than one as indicating a cell-killing mechanism in addition to anti-proliferation. The relationships for these effects are included in the model using the following equations. Eq 2 describes the drug anti-proliferative effect in the net proliferation rate for a given cell type. Eq 3 describes the cell-killing EmaxCK effect.
(§6) Towards the estimation of mechanistic parameters, we considered different formulations: (a) weighting the objective value to prioritize fitting dead cells and (b) using regularization methodology to encourage a parsimonious solution. We assessed the contributions of these formulations using mean-squared error and goodness of fit plots for drugs with known mechanisms. […] Further, we used L1 regularization to penalize parameters […] to help identify a parsimonious set of parameters to explain drug effects.

[2] = tested on: monocytes (monocyte-lin); assay: MLTA, Mono: concentration-response and QSP model fit
Protocol: as §1, §2, §3, §4, §5, §6

[3] = tested on: lymphocyte progenitors (LymP); assay: MLTA, LymP: concentration-response and QSP model fit
Protocol: as §1, §2, §3, §4, §5, §6

[4] = tested on: granulocyte progenitor (Gran-lin prog); assay: MLTA, GranP: concentration-response and QSP model fit; conditions: for EC50: read-out: EC50GranP
Protocol: as §1, §2, §3, §4, §5, §6

[5] = tested on: early erythroid cells (Eryth I); assay: MLTA, ErythI: concentration-response and QSP model fit; conditions: for EC50: read-out: EC50ErythroidI
Protocol: as §1, §2, §3, §4, §5, §6

[6] = tested on: monocyte progenitors (monocyte prog); assay: MLTA, MonoP: concentration-response and QSP model fit; conditions: for EC50: read-out: EC50MonoP
Protocol: as §1, §2, §3, §4, §5, §6

[7] = tested on: neutrophils (neutrophil-lin); assay: MLTA, Neut: concentration-response and QSP model fit
Protocol: as §1, §2, §3, §4, §5, §6

[8] = tested on: hematopoietic stem cells (HSCs); assay: Multi-lineage toxicity assay (MLTA), HSCs: concentration-response and QSP model fit; design: EmaxAP,HSC / EmaxT,HSC / Emax_drug_HSC: unitless, 0–2; ≤1 anti-proliferative, >1 adds cell killing
Protocol: as §1, §2, §3, §4, §5, §6

[9] = tested on: late erythroid cells (Eryth II); assay: MLTA, ErythII: concentration-response and QSP model fit; conditions: for EC50: read-out: EC50ErythroidII
Protocol: as §1, §2, §3, §4, §5, §6

[10] = tested on: granulocyte-macrophage progenitor (GMPs); assay: MLTA, GMPs: concentration-response and QSP model fit
Protocol: as §1, §2, §3, §4, §5, §6

[11] = tested on: B cells (B-lin); assay: MLTA, B-lin: concentration-response and QSP model fit
Protocol: as §1, §2, §3, §4, §5, §6

[12] = tested on: MK cells (MK-lin); assay: MLTA, MK: concentration-response and QSP model fit
Protocol: as §1, §2, §3, §4, §5, §6

[13] = tested on: multi-potent progenitors (MPPs); assay: MLTA, MPPs: concentration-response and QSP model fit
Protocol: as §1, §2, §3, §4, §5, §6

[14] = QSP model parameter, sheet EC50_parameters, Gran
[15] = parameter from QSP model fitting
[16] = QSP model parameter, sheet EC50_parameters, Mono
[17] = QSP model parameter, sheet EC50_parameters, LymP
[18] = QSP model parameter, sheet EC50_parameters, GranP
[19] = QSP model parameter, sheet EC50_parameters, Erythroid I
[20] = QSP model parameter, sheet EC50_parameters, MonoP
[21] = QSP model parameter, sheet EC50_parameters, Neut
[22] = QSP model parameter, sheet EC50_parameters, HSCs
[23] = QSP model parameter, sheet EC50_parameters, Erythroid II
[24] = QSP model parameter, sheet EC50_parameters, GMPs
[25] = QSP model parameter, sheet EC50_parameters, B
[26] = QSP model parameter, sheet EC50_parameters, MK
[27] = QSP model parameter, sheet EC50_parameters, MPPs

`CC(C)C[C@H](NC(=O)[C@H](Cc1ccccc1)NC(=O)c1cnccn1)B(O)O` [Bortezomib] showed an Emax ([1]; Homo sapiens, 144 h, parameter from QSP model fitting, read-out: Emax_drug_Gran) of 184%, an EC50 ([1]; Homo sapiens, QSP model parameter, sheet EC50_parameters, Gran) of 68.6 nM and an Emax ([2]; Homo sapiens, Monocyte, 144 h, parameter from QSP model fitting, read-out: Emax_drug_Mono) of 39%. The EC50 ([2]; Homo sapiens, Monocyte, QSP model parameter, sheet EC50_parameters, Mono) was 83.6 nM, the Emax ([3]; Homo sapiens, Lymphocyte, 144 h, parameter from QSP model fitting, read-out: Emax_drug_LymP) was 0.16% and the EC50 ([3]; Homo sapiens, Lymphocyte, QSP model parameter, sheet EC50_parameters, LymP) was 112 nM. For the same compound, the Emax ([4]; Homo sapiens, 144 h, parameter from QSP model fitting, read-out: Emax_drug_GranP) was 0.06%, the EC50 ([4]; Homo sapiens, QSP model parameter, sheet EC50_parameters, GranP) was 132 nM and the Emax ([5]; Homo sapiens, 144 h, parameter from QSP model fitting, read-out: Emax_drug_ErythroidI) was 0.16%. It also gave an EC50 ([5]; Homo sapiens, QSP model parameter, sheet EC50_parameters, Erythroid I) of 60.8 nM, an Emax ([6]; Homo sapiens, Monocyte, 144 h, parameter from QSP model fitting, read-out: Emax_drug_MonoP) of 0.17% and an EC50 ([6]; Homo sapiens, Monocyte, QSP model parameter, sheet EC50_parameters, MonoP) of 70.9 nM. It also gave an Emax ([7]; Homo sapiens, Neutrophil, 144 h, parameter from QSP model fitting, read-out: Emax_drug_Neut) of 23.9%, an EC50 ([7]; Homo sapiens, Neutrophil, QSP model parameter, sheet EC50_parameters, Neut) of 108 nM and an Emax ([8]; Homo sapiens, Hematopoietic stem cell, 144 h, parameter from QSP model fitting, read-out: Emax_drug_HSC) of 134%. It also gave an EC50 ([8]; Homo sapiens, Hematopoietic stem cell, QSP model parameter, sheet EC50_parameters, HSCs) of 105 nM, an Emax ([9]; Homo sapiens, 144 h, parameter from QSP model fitting, read-out: Emax_drug_ErythroidII) of 19.1% and an EC50 ([9]; Homo sapiens, QSP model parameter, sheet EC50_parameters, Erythroid II) of 56.5 nM. For the same compound, the EC50 ([10]; Homo sapiens, QSP model parameter, sheet EC50_parameters, GMPs) was 40.6 nM, the Emax ([11]; Homo sapiens, B-cell, 144 h, parameter from QSP model fitting, read-out: Emax_drug_B) was 89.8% and the EC50 ([11]; Homo sapiens, B-cell, QSP model parameter, sheet EC50_parameters, B) was 36.2 nM. For the same compound, the Emax ([12]; Homo sapiens, 144 h, parameter from QSP model fitting, read-out: Emax_drug_MK) was 35.3%, the EC50 ([12]; Homo sapiens, QSP model parameter, sheet EC50_parameters, MK) was 38.3 nM and the Emax ([13]; Homo sapiens, 144 h, parameter from QSP model fitting, read-out: Emax_drug_MPP) was 0.3%. For the same compound, the EC50 ([13]; Homo sapiens, QSP model parameter, sheet EC50_parameters, MPPs) was 33.1 nM.
For `O=c1[nH]cc(F)c(=O)[nH]1` [5-FU], the EC50 [1, 14] was 0.117 nM, the “EmaxT,Gran” value [1, 14] was 0.1807 and the Emax_drug_Gran [1, 15] was 0.1807. The EC50 [2, 16] was 299 nM, the “EmaxT,Mono” value [2, 16] was 0.3048 and the Emax_drug_Mono [2, 15] was 0.3048. For the same compound, the EC50 [3, 17] was 37 nM, the “EmaxT,LymP” value [3, 17] was 0.0016 and the Emax_drug_LymP [3, 15] was 0.0016. The “EmaxT,GranP” value [4, 18] was 0.0162, the EC50 [4, 18] was 302 nM and the Emax_drug_GranP [4, 15] was 0.0162. For the same compound, the “EmaxT,ErythroidI” value [5, 19] was 2.3324, the EC50 [5, 19] was 921 nM and the Emax_drug_ErythroidI [5, 15] was 2.3324. The “EmaxT,MonoP” value [6, 20] was 0.0016, the EC50 [6, 20] was 178 nM and the Emax_drug_MonoP [6, 15] was 0.0016. The EC50 [7, 21] was 1030 nM, the “EmaxT,Neut” value [7, 21] was 0.2668 and the Emax_drug_Neut [7, 15] was 0.2668. The EC50 [8, 22] was 1910 nM, the “EmaxT,HSC” value [8, 22] was 0.7982 and the Emax_drug_HSC [8, 15] was 0.7982. The “EmaxT,ErythroidII” value [9, 23] was 0.0352, the EC50 [9, 23] was 1780 nM and the Emax_drug_ErythroidII [9, 15] was 0.0352. For the same compound, the EC50 [10, 24] was 753 nM, the “EmaxT,GMP” value [10, 24] was 1.5687 and the Emax_drug_GMP [10, 15] was 1.5687. For the same compound, the EC50 [11, 25] was 1090 nM, the “EmaxT,B” value [11, 25] was 0.8249 and the Emax_drug_B [11, 15] was 0.8249. For the same compound, the EC50 [12, 26] was 1110 nM, the “EmaxT,MK” value [12, 26] was 0.3220 and the Emax_drug_MK [12, 15] was 0.3220. For the same compound, the EC50 [13, 27] was 939 nM, the “EmaxT,MPP” value [13, 27] was 0.000528 and the Emax_drug_MPP [13, 15] was 0.000528.
